The values that follow come from US11952349B2, “Anti-cancer nuclear hormone receptor-targeting compounds” (Nuvation Bio Inc., priority 2019, dated 2024).

One may read the IC50 as the concentration at which inhibition is half-maximal. A low value points to higher potency.

Some results are limits rather than exact numbers.

The target in this assay is T1, ligand binding domain of the glucocorticoid receptor (Homo sapiens, UniProt P04150).
T1 construct: expressed in transfected cells
T1 sequence (P04150 524-758 limits assumed): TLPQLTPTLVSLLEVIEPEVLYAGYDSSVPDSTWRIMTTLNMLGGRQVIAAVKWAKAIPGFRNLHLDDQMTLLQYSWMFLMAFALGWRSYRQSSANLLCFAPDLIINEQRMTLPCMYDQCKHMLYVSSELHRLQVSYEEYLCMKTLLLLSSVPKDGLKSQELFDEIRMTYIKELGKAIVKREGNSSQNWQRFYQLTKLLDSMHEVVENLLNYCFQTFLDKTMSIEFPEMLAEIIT
Description: GR antagonism assay (HEK293, dexamethasone 1.5 nM, Dual-glo). The conditions noted are these: Table 8. It counts as cell-based. How it is done: GR antagonism assay: To evaluate GR antagonist activity, test compound was added to the assay plate (top dose 5 μM, 4 fold serial dilution, 8 point dose response). HEK293 cells stably expressing the ligand binding domain of the glucocorticoid receptor were seeded at a density of 40000 cells/well in the assay plate. The assay plate was then incubated at 37° C., 5% CO2 for 30 minutes. Dexamethasone was added to the assay plate at 1.5 nM final concentration and the assay plate was incubated at 37° C., 5% CO2 for 20 h. After the incubation period, Dual-glo luciferase reagent was added to the assay plate and mixed at room temperature for 20 minutes on an orbital shaker, before reading out on the EnVision plate reader.
The molecule `CC#C[C@]1(O)CC[C@H]2[C@@H]3CCC4=CC(=O)CCC4=C3[C@@H](c3ccc(N(C)CCCCCC(=O)N4CCN(C(=O)c5cc(Cc6n[nH]c(=O)c7ccccc67)ccc5F)CC4)cc3)C[C@@]21C` [Compound 135, 4-(4-fluoro-3-(4-(6-((4-((8S,11R,13S,14S,17S)-17-hydroxy-13-methyl-3-oxo-17-(prop-1-ynyl)-2,3,6,7,8,11,12,13,14,15,16,17-dodecahydro-1H-cyclopenta[a]phenanthren-11-yl)phenyl)(methyl)amino)hexanoyl)piperazine-1-carbonyl)benzyl)phthalazin-1(2H)-one] showed an IC50 of under 10 nM.
The value for `CC(=O)O[C@]1(C(C)=O)CC[C@H]2[C@@H]3CCC4=CC(=O)CCC4=C3[C@@H](c3ccc(N(C)CCCCCC(=O)N4CCN(C(=O)c5cc(Cc6n[nH]c(=O)c7ccccc67)ccc5F)CC4)cc3)C[C@@]21C` [Compound 1378, (8S,11R,13S,14S,17R)-17-acetyl-11-(4-((6-(4-(2-fluoro-5-((4-oxo-3,4-dihydrophthalazin-1-yl)methyl)benzoyl)piperazin-1-yl)-6-oxohexyl)(methyl)amino)phenyl)-13-methyl-3-oxo-2,3,6,7,8,11,12,13,14,15,16,17-dodecahydro-1H-cyclopenta[a]phenanthren-17-yl acetate] was under 10 nM.
`CC(=O)O[C@]1(C(C)=O)CC[C@H]2[C@@H]3CCC4=CC(=O)CCC4=C3[C@@H](c3ccc(N(C)CCCCCC(=O)NCCOCCOCC(=O)N4CCN(C(=O)c5cc(Cc6n[nH]c(=O)c7ccccc67)ccc5F)CC4)cc3)C[C@@]21C` [Compound 1384, (8S,11R,13S,14S,17R)-17-acetyl-11-(4-((6-(2-(2-(2-(4-(2-fluoro-5-((4-oxo-3,4-dihydrophthalazin-1-yl)methyl)benzoyl)piperazin-1-yl)-2-oxoethoxy)ethoxy)ethylamino)-6-oxohexyl)(methyl)amino)phenyl)-13-methyl-3-oxo-2,3,6,7,8,11,12,13,14,15,16,17-dodecahydro-1H-cyclopenta[a]phenanthren-17-yl acetate] registered an IC50 of 10 to 100 nM.
For `C[C@]12CC[C@H]3[C@@H](CCC4=CC(=O)CC[C@@]43C)[C@@H]1CC[C@@H]2C(=O)COCCCCCC(=O)N1CCN(C(=O)c2cc(Cc3n[nH]c(=O)c4ccccc34)ccc2F)CC1` [Compound 1386, 4-(3-(4-(6-(2-((8S,9S,10R,13S,14S,17S)-10,13-dimethyl-3-oxo-2,3,6,7,8,9,10,11,12,13,14,15,16,17-tetradecahydro-1H-cyclopenta[a]phenanthren-17-yl)-2-oxoethoxy)hexanoyl)piperazine-1-carbonyl)-4-fluorobenzyl)phthalazin-1(2H)-one] the value was 100 to 1000 nM.
For `CC#C[C@]1(O)CC[C@H]2[C@@H]3CCC4=CC(=O)CCC4=C3[C@@H](c3ccc(N(C)CCCCCC(=O)NCCOCCOCC(=O)N4CCN(C(=O)c5cc(Cc6n[nH]c(=O)c7ccccc67)ccc5F)CC4)cc3)C[C@@]21C` [Compound 1429, N-(2-(2-(2-(4-(2-fluoro-5-((4-oxo-3,4-dihydrophthalazin-1-yl)methyl)benzoyl)piperazin-1-yl)-2-oxoethoxy)ethoxy)ethyl)-6-((4-((8S,11R,13S,14S,17S)-17-hydroxy-13-methyl-3-oxo-17-(prop-1-ynyl)-2,3,6,7,8,11,12,13,14,15,16,17-dodecahydro-1H-cyclopenta[a]phenanthren-11-yl)phenyl)(methyl)amino)hexanamide] the value was 10 to 100 nM.
